Experimental data as given in the supplement of paper PMC10307832.

Columns and labels:
Assay in all cases: relative viability (nuclei count vs DMSO), 5 days (fraction); higher = more cells survive
Kobe2602 + Pictilisib = compound: C1=CC(=CC=C1NC(=S)NNC2=C(C=C(C=C2[N+](=O)[O-])C(F)(F)F)[N+](=O)[O-])F [Kobe2602] + CS(=O)(=O)N1CCN(Cc2cc3nc(-c4cccc5[nH]ncc45)nc(N4CCOCC4)c3s2)CC1 [Pictilisib] (partner 1 µM)
Outline: (§1)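 After 5 days of treatment, lung cancer cells in 1536-well plates were fixed and stained in a single step (final 0.05% Triton X-100, 1% formaldehyde, 1 ug/ml Hoechst) and their nuclei counted on 4× images. Treatment had been applied by pin tool the day after seeding as one drug alone or as a fixed anchor-drug dose with five library-drug doses (not always all listed) in √10 steps. Relative viability is the nuclei count of treated wells divided by that of vehicle wells, and values are medians of duplicate plates.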

Cabozantinib + Olaparib = compound: COc1cc2nccc(Oc3ccc(NC(=O)C4(C(=O)Nc5ccc(F)cc5)CC4)cc3)c2cc1OC [Cabozantinib] + O=C(c1cc(Cc2n[nH]c(=O)c3ccccc23)ccc1F)N1CCN(C(=O)C2CC2)CC1 [Olaparib] (partner 8 µM)
Outline: as §1

Zosuquidar + Crizotinib = compound: O[C@@H](COc1cccc2ncccc12)CN1CCN([C@@H]2c3ccccc3[C@@H]3[C@H](c4ccccc42)C3(F)F)CC1 [Zosuquidar] + C[C@@H](Oc1cc(-c2cnn(C3CCNCC3)c2)cnc1N)c1c(Cl)ccc(F)c1Cl [Crizotinib] (partner 1 µM)
Outline: as §1

[1] = compound: COc1cc2nccc(Oc3ccc(NC(=O)C4(C(=O)Nc5ccc(F)cc5)CC4)cc3)c2cc1OC [Cabozantinib] + N=C(N)NC(=N)NCCc1ccccc1 [Phenformin] (partner 250 µM)
Outline: as §1

Cell Line	relative viability (Kobe2602 + Pictilisib; first compound 0.2 µM)	relative viability (Kobe2602 + Pictilisib; first compound 0.6325 µM)	relative viability (Kobe2602 + Pictilisib; first compound 2 µM)	relative viability (Kobe2602 + Pictilisib; first compound 6.325 µM)	relative viability (Kobe2602 + Pictilisib; first compound 20 µM)	relative viability (Cabozantinib + Olaparib; first compound 0.02 µM)	relative viability (Cabozantinib + Olaparib; first compound 0.06325 µM)	relative viability (Cabozantinib + Olaparib; first compound 0.2 µM)	relative viability (Cabozantinib + Olaparib; first compound 0.6325 µM)	relative viability (Cabozantinib + Olaparib; first compound 2 µM)	relative viability (Zosuquidar + Crizotinib; first compound 0.01 µM)	relative viability (Zosuquidar + Crizotinib; first compound 0.03162 µM)	relative viability (Zosuquidar + Crizotinib; first compound 0.1 µM)	relative viability (Zosuquidar + Crizotinib; first compound 0.3162 µM)	relative viability (Zosuquidar + Crizotinib; first compound 1 µM)	relative viability ([1]; first compound 0.02 µM)	relative viability ([1]; first compound 0.06325 µM)	relative viability ([1]; first compound 0.2 µM)	relative viability ([1]; first compound 0.6325 µM)	relative viability ([1]; first compound 2 µM)
NCI-H2170	0.325	0.327	0.329	0.324	0.344	0.66	0.682	0.538	0.576	0.684	1.18	1.22	1.21	1.19	1.17	0.468	0.418	0.425	0.365	0.353
NCI-H2228	0.552	0.372	0.334	0.334	0.33	0.769	0.924	0.742	0.602	0.573	0.524	0.598	0.44	0.338	0.607	0.392	0.359	0.298	0.471	0.35
NCI-H2347	0.745	0.843	0.716	0.558	0.611	0.641	0.549	0.525	0.493	0.446	0.786	0.75	0.575	0.794	0.717	0.449	0.604	0.596		0.318
NCI-H2405	0.459	0.41	0.413	0.425	0.536	0.859	1.01	0.931	0.899	0.804	0.889	0.82	0.757	0.819	0.825	0.335	0.46	0.484	0.39	0.418
NCI-H3122	0.575	0.599	0.522	0.583	0.702	0.636	0.655	0.617	0.527	0.633	0.271	0.274	0.24	0.275	0.252	0.45	0.423	0.374	0.333	0.324
PC-3 [JPC-3]	0.873	0.74	0.795	0.781	0.671	1.23	1.31		1.2	1.14	0.861	0.981	0.878	0.964	0.946	0.491	0.505		0.457	0.462
PC-14	0.63	0.674	0.592	0.637	0.745	0.254	0.33		0.269	0.307	0.837	1.02	0.801	0.938	0.759	0.531	0.93		0.591	0.552
RERF-LC-KJ	0.589	0.643	0.512	0.506	0.493	1.06	1.05	0.96	0.824	0.921	0.81	0.799	0.824	0.873	0.806	0.442	0.404	0.44	0.418	0.413
SK-LU-1	0.613	0.727	0.624	0.578	0.513	0.605	0.559	0.488	0.437	0.38	0.974	0.981	1.1	0.932	0.911	0.587	0.791	0.552	0.476	0.438
SK-MES-1	0.348	0.362	0.346	0.345	0.362	0.767	0.845	0.689	0.684	0.694	0.977	0.99	0.955	1.03	1.02	0.701	0.688	0.705	0.667	0.631
SW 1573	0.491	0.457	0.365	0.556	0.486	0.455	0.516	0.447	0.488	0.384	0.873	0.728	0.791	0.775	0.833	0.45	0.368	0.331	0.365	0.345
